# Experimental data from patent publication US8669378B2, “Process for synthesizing epicconone analogs” (Universite de Rouen, priority 2009, dated 2014).
# Columns and labels:
# [1] = Absorbance of the adducts with butylamine in acetonitrile; type: physicochemical; settings: Bioconjugated molecule (BuNH2) in CH3CN; for λ UV (nm), second maximum: longer-wavelength absorption maximum, used for excitation; for λ UV (nm), first maximum: shorter-wavelength absorption maximum
# Procedure: (§1) Apparatus: • Acetonitrile: VWR HPLC quality • Micropipette: 5 μl, 10 μl, 200 μl, 1000 μl, • Eppendorf: Safe lock tube PCR • UV cuvette: Varian-Quartz 10 mm thick • Fluorescence cuvette: Hellma-Quartz 10 mm thick • Vortex: Bender & Hobein-Genie 2 • Centrifuge: Baky Bug • Absorbance spectrophotometer: Varian-Cary 50 scan • Fluorescence spectrophotometer: Varian-Cary Eclipse • Thermostated bath: Varian-Cary single cell peltier accessory Stock Solution:
# (§2) Approximately exactly 1 to 2 mg of compound Ia-Io are weighed out in a 1.5 mL Eppendorf tube. The stock solutions are then prepared by adding exactly 1 mL of acetonitrile and the Eppendorf tubes are then stored protected from light.
# 30 μl of stock solution are placed in a 1.5 mL Eppendorf tube. At room temperature, 10 μl (or 30 μl in the case of Ik) of a 0.15 M solution of butylamine/acetonitrile are added and the medium is stirred by vortex and then centrifuged. After diluting to 1 mL by adding 960 μl of acetonitrile (or 940 μl in the case of Ik), the clear solution is transferred into a UV cuvette and then made up to 2 mL with acetonitrile. The analysis is then performed after producing a “blank” spectrum with a pure acetonitrile solution.
# [2] = Fluorescence of the adducts with butylamine in acetonitrile; type: physicochemical; parameters: Δ Stokes: unit not given here; settings: Bioconjugated molecule (BuNH2) in CH3CN; for Δ Stokes: emission minus excitation wavelength; for λ fluo (λ excitation) (nm): excitation at maximum-absorption wavelength; for Intensity normalized to 50 μM: fluorescence intensity
# Procedure: as §1, §2
# Two protocols were implemented for the fluorescence tests. • For compounds Ii-Ik: 125 μL of the preceding solution (absorbance solution) are diluted to 1.25 mL by adding 1125 μl of acetonitrile to a fluorescence cuvette. The analysis is then performed on the fluorescence spectrophotometer by excitation at the respective maximum-absorption wavelengths. • For compounds Ia-Ih and Il-Io: 1250 μl of the preceding solution (absorbance) are placed in a fluorescence cuvette. The analysis is then performed on the fluorescence spectrophotometer by excitation at the respective maximum-absorption wavelengths.
Structure (SMILES),"λ UV (nm), second maximum [1] [nm]","λ UV (nm), first maximum [1] [nm]",Δ Stokes [2],λ fluo (λ excitation) (nm) [2] [nm],Intensity normalized to 50 μM [2]
"CC1CC2=CC3=C(C(=O)c4ccccc4)C(=O)OC3(C)C(=O)C2=CO1 (centres unmarked) [Ia, 3-benzoyl-6,9a-dimethyl-5,6-dihydro-9aH-furo[3,2-g]isochromene-2,9-dione]",472,351,113,585,98
"COc1ccc(C(=O)C2=C3C=C4CC(C)OC=C4C(=O)C3(C)OC2=O)cc1 (centres unmarked) [Ib, 3-(4-methoxybenzoyl)-6,9a-dimethyl-5,6-dihydro-9aH-furo[3,2-g]isochromene-2,9-dione]",452,351,134,586,205
"CC1CC2=CC3=C(C(=O)c4ccco4)C(=O)OC3(C)C(=O)C2=CO1 (centres unmarked) [Ic, 3-(furan-2-carbonyl)-6,9a-dimethyl-5,6-dihydro-9aH-furo[3,2-g]isochromene-2,9-dione]",465,352,128,593,193
"CC1CC2=CC3=C(C(=O)c4ccc5ccccc5c4)C(=O)OC3(C)C(=O)C2=CO1 (centres unmarked) [Id, 3-(2-naphthoyl)-6,9a-dimethyl-5,6-dihydro-9aH-furo[3,2-g]isochromene-2,9-dione]",464,351,106,570,173
"COCCOCCOc1ccc(C(=O)C2=C3C=C4CC(C)OC=C4C(=O)C3(C)OC2=O)cc1 (centres unmarked) [Ie, 3-(4-(2-(2-methoxyethoxy)ethoxy)benzoyl)-6,9a-dimethyl-5,6-dihydro-9aH-furo[3,2-g]isochromene-2,9-dione]",453,349,137,590,120
"COc1ccccc1C(=O)C1=C2C=C3CC(C)OC=C3C(=O)C2(C)OC1=O (centres unmarked) [If, 3-(2-methoxybenzoyl)-6,9a-dimethyl-5,6-dihydro-9aH-furo[3,2-g]isochromene-2,9-dione]",469,351,120,589,147

# Further lines, results first:
"λ UV (nm), second maximum [1] [nm]","λ UV (nm), first maximum [1] [nm]",Δ Stokes [2],λ fluo (λ excitation) (nm) [2] [nm],Intensity normalized to 50 μM [2],Structure (SMILES)
463,350,134,597,32,"CC1CC2=CC3=C(C(=O)c4ccccc4O)C(=O)OC3(C)C(=O)C2=CO1 (centres unmarked) [Ig, 3-(2-hydroxybenzoyl)-6,9a-dimethyl-5,6-dihydro-9aH-furo[3,2-g]isochromene-2,9-dione]"
460,354,130,590,155,"COc1ccc(C(=O)C2=C3C=C4CC(C)(C)OC=C4C(=O)C3(C)OC2=O)cc1 (centres unmarked) [Ih, 3-(4-methoxybenzoyl)-6,6,9a-trimethyl-5,6-dihydro-9aH-furo[3,2-g]isochromene-2,9-dione]"
498,350,90,588,264,"COc1ccc(C(=O)C(C)C(=O)C2=C3C=C4CC(C)(C)OC=C4C(=O)C3(C)OC2=O)cc1 (centres unmarked) [Il, 3-(3-(4-methoxyphenyl)-2-methyl-3-oxopropanoyl)-6,6,9a-trimethyl-5,6-dihydro-9aH-furo[3,2-g]isochromene-2,9-dione]"
489,351,102,591,202,"CC(C(=O)C1=C2C=C3CC(C)(C)OC=C3C(=O)C2(C)OC1=O)C(=O)c1ccccc1 (centres unmarked) [Im, 6,6,9a-trimethyl-3-(2-methyl-3-oxo-3-phenylpropanoyl)-5,6-dihydro-9aH-furo[3,2-g]isochromene-2,9-dione]"
